Article PMC8658909, “Organometallic small molecule kinase inhibitors – direct incorporation of Re and ^99mTc into Opaganib®” (Chemical Communications (Cambridge, England), 2021)

Molecular target: T1, sphingosine kinase-2 (SK2) (Homo sapiens, UniProt Q9NRA0)
T1 construct: gene SPHK2
T1 sequence (Q9NRA0 1-654): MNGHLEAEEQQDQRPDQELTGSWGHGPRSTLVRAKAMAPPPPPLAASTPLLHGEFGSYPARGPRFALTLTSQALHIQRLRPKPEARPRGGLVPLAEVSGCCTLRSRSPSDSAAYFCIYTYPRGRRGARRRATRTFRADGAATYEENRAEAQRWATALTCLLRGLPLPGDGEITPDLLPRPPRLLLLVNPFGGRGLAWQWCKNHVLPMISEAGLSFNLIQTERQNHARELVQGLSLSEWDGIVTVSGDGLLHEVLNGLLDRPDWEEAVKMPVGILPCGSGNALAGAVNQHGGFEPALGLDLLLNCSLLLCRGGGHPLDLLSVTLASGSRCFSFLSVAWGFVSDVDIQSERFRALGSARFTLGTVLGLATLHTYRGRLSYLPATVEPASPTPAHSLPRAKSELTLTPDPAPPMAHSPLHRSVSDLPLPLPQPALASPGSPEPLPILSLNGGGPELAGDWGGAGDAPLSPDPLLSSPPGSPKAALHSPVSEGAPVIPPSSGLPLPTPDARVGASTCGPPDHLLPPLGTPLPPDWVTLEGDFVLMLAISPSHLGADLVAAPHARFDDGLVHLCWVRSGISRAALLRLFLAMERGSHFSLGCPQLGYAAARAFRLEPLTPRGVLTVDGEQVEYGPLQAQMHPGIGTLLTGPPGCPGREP
Assay: SK2 kinase inhibition IC50 (details in ESI)
Assay type: biochemical

IC50: 15.8 ± 3 µM
SMILES: O=C(NCc1ccncc1)C12CC3CC(C1)CC(c1ccc(Cl)cc1)(C3)C2 [Opaganib®, Opaganib]
